Measurements from patent US20240130988A1, “Use of stilbene compounds in the preparation of anti-tumor drugs” (Guangzhou AnHao Pharmaceutical Technology CO., LTD., priority 2022, published 2024).
Marks after values point to notes of the source that are not given here.

What was measured:
[1] = tested on: LLC (mouse lung cancer cells); assay: Enrichment of CD8+ cytotoxic T lymphocytes in tumor tissue, Lewis non-small cell lung cancer model of mice; format: in vivo; settings: 400 mg/kg ip once a day for 10 days; for The ratio of distribution area in tumor tissues (%): CD8+ immunohistochemistry; for The ratio of CD8^+ in total immune cells of tumor tissues (%): flow cytometry
Method: LLC (mouse lung cancer cells) were a mouse Lewis lung cancer cells.
The modeling method for LLC cell lung cancer in mice was as follows:
LLC cells were cultured in the general medium containing 10% fetal bovine serum and 100 μg/mL of double antibody (penicillin±streptomycin), and then cultivated in a 37° C., 5% CO2 cell incubator for routine incubation. LLC cells, that had grown to logarithmic phase, were digested with 0.25% trypsin (containing EDTA) to form a cell suspension, which was centrifuged at 1000 rpm/min for 3 min. The supernatant was discarded, and cell precipitates were collected, that were resuspended in culture medium without serum and double antibody. The cell suspension was further centrifuged to adjust the volume under the same conditions with the aid of cell counting, so as to prepare a cell suspension at a concentration of […] was injected into the right abdomen of each mouse, to complete the inoculation of tumor cells. The tumor was allowed to grew about 10 days, and the volume reached around 100 mm^3, before the mice were treated with test compounds.
Drug preparation: compounds 1-13 of the present invention were respective prepared into an injection with injection water.
Experimental methods: The model mice with LLC cell lung cancer were treated by intraperitoneal administration of 400 mg/kg injection containing the compound of the present invention. The model mice were divided into a negative control group (model mice only receiving equal volume of injection water by intraperitoneal administration) and treatment groups (model mice receiving the injection prepared with the compound of the present invention by intraperitoneal administration). The intraperitoneal injection regimen was carried out by injecting once a day at the pre-determined time. Before administration, the mice were weighed, and then treated with the injection at a dosage of 10 mL/kg, After successive administration for 10 days, that is, on the 10th day after receiving treatment, the mice were sacrificed, and the subcutaneous tumors were stripped to detect the ratio of cytotoxic T lymphocyte antigen CD8^+ in tumor tissues of the negative group and the treatment group by flow cytometry.
CD8^+ tumor-infiltrating lymphocytes in tumor tissues were detected by flow cytometry. The specific steps were as follows:
The mice were sacrificed, and then the abdominal epidermis of the mice was cut open using ophthalmic scissors, to fully expose the subcutaneous tumors. The subcutaneous tumor tissues on the right side of the mouse's abdomen were gradually peeled off with tweezers and ophthalmic scissors. After rinsing with PBS, the stripped tumor tissues were cut into about 1 mm using ophthalmic scissors, and then placed in 3 mL of PBS buffer containing 100 μg/mL of hyaluronidase. A centrifuge tube containing a dispersed liquid was placed in a water bath and kept at 37° C. for 20 min. A pipette was used to blow and shake the digestive tumor tissues every 5 minutes to fully digest. The dispersed liquid containing undigested tumor tissues was filtered through a 70 μm stainless steel cell screen, and the remaining undigested tumor tissues were ground using a push rod of 20 mL syringe on 70 μm cell screen and rinsed 5 times with 1 mL of PBS while grinding. The cell suspension passing the cell screen was transferred to a 15 mL centrifuge tube, and centrifuged at 4000 rpm for 3 min. Then, cell precipitates were collected, to which was added 2 mL of red cell lysis buffer, and rested for 10 min, followed by centrifuging at 4000 rpm for 3 min. After washing with PBS, the cells were resuspended by adding 2-3 mL of PBS.
An appropriate amount of cell suspension was used as the sample for flow cytometry, and after counting, the cell suspension was adjusted to have a concentration of 5×10^6/mL. 100 μL of cell suspension was added to a test tube with a pipettor. […]

[2] = tested on: human prostate cell LNCaP; assay: Human prostate cell LNCaP transplanted tumor in nude mice; format: in vivo, BALB/C nude mice
Method: A human prostate cell LNCaP model transplanted into nude mice was used in the experiment to investigate the anti-tumor effect of test compounds.
(§1) Preparation: The compound was prepared as the injection at the desired concentration with sterile normal saline, prior to administration.
(§2) Animal strain: BALB/C nude mice (SPF grade), weight: 19-21 g, gender: male.
(§3) Number of animals in each treatment group: 8; number of animals in the control group: >12.
(§4) The tumor blocks of human prostate cell LNCaP with good growth were cut into uniform small pieces of 3 mm under sterile conditions, and then subcutaneously inoculated into the right armpit of each mouse with a cannula. The mice were divided into 9 groups, 8 mice for each treatment group, while >12 mice were included in the control group,
(§5) 14 days after inoculation, the average volume of the tumor block was about 100 mm^3. The animals were regrouped based on the size of the tumor, and the animals with tumors that were too large and too small were sifted out, For each group, the average volume of tumors was basically the same, and then the mice were initially treated with test compounds. The mice were intraperitoneally injected once a day for 14 days, at a dosage of 0.2 mL/20 g body weight; the mice in the control group were given the same volume of sterile normal saline. From the 14th day of inoculation, the long diameter a (mm) of the tumor, together with the perpendicular short diameter b (mm), was measured using a digital electronic caliper, twice a week. The calculation formula of tumor volume is: TV=ab^2/2, and the formula for calculating the relative tumor volume is: RTV=Vt/Vb, wherein Vo denotes the tumor volume measured when the mice were divided into groups (i.e. d1), and Vt denotes the tumor volume from each measurement.
(§6) The result determination is based on the following formula: […]

[3] = tested on: LLC (mouse lung cancer cells); assay: Enrichment of CD8+ cytotoxic T lymphocytes in tumor tissue, Lewis non-small cell lung cancer model of mice; format: in vivo; settings: 400 mg/kg ip once a day for 10 days, CD8+ immunohistochemistry
[4] = tested on: human ovarian cancer A2780; assay: Human ovarian cancer A2780 transplanted tumor in nude mice; format: in vivo, BALB/C nude mice; settings: A2780, 200 mg/kg ip × 14
Method: A human ovarian cancer A2780 model transplanted into nude mice was used in the experiment to investigate the anti-tumor effect of test compounds.
as §1, §2, §3
as §4, with “human ovarian cancer A2780 growing well” for “human prostate cell LNCaP with good growth”, “control group.” for “control group,”
as §5, with “sifted out.” for “sifted out,”, “volume is RTV=Vt/Vo,” for “volume is: RTV=Vt/Vb,”, “Vt is” for “Vt denotes”
as §6

| Compound | The ratio of distribution area in tumor tissues (%) [1] | The ratio of CD8^+ in total immune cells of tumor tissues (%) [1] | RTV (d 18) ([2]; 200 mg/kg ip × 14) | Tumor inhibitory rate % ([2]; 200 mg/kg ip × 14) | The ratio of distribution area in tumor tissues (%) [3] | The ratio of CD8^+ in total immune cells of tumor tissues (%) ([1]; 400 mg/kg) | RTV (d 18) [4] | Tumor inhibitory rate % [4] | The ratio of distribution area in tumor tissues (%) ([3]; 400 mg/kg) | Tumor inhibitory rate % ([2]; 200 mg/kg ip × 14, 200 mg/kg) | Tumor inhibitory rate % ([2]; 200 mg/kg ip × 14, listed as compound 4, 200 mg/kg) | Tumor inhibitory rate % ([4]; listed as compound 6) |
| --- | --- | --- | --- | --- | --- | --- | --- | --- | --- | --- | --- | --- |
| COc1cc(/C=C(/C(=O)O)c2cc(OC)c(OC)c(OC)c2)cc(OC)c1 [Compound 3, (E)-3-(3,5-dimethoxyphenyl)-2-(3,4,5-trimethoxyphenyl)acrylic acid] | 6.731 ± 0.5692% | 0.0762 ± 0.0103% | 4.77 ± 0.71 | 60.87^## % | – | – | – | – | – | – | – | – |
| COc1cc(/C(=C\c2cc(O)c(OC)c(O)c2)C(=O)O)cc(OC)c1OC [Compound 11, (E)-3-(3,5-dihydroxy-4-methoxyphenyl)-2-(3,4,5-trimethoxyphenyl)acrylic acid] | – | 0.0653 ± 0.0122% | – | – | 5.735 ± 0.5952% | – | – | – | – | – | – | – |
| COc1ccc(/C=C(/C(=O)O)c2cc(OC)c(OC)c(OC)c2)c(O)c1O [Compound 1, (E)-3-(2,3-dihydroxy-4-methoxyphenyl)-2-(3,4,5-trimethoxylphenyl)acrylic acid] | – | – | 4.92 ± 0.82 | 56.27^## % | – | 0.0605 ± 0.0124% | 5.63 ± 0.72 | 45.39^## % | 6.265 ± 0.3673% | – | – | – |
| COc1ccc(/C=C(/C(=O)O)c2cc(OC)c(OC)c(OC)c2)c(F)c1O [Compound 9, (E)-3-(2-fluoro-3-hydroxy-4-methoxyphenyl)-2-(3,4,5-trimethoxyphenyl)acrylic acid] | – | 0.0753 ± 0.0123% | – | – | 6.258 ± 0.6573% | – | 4.37 ± 0.62 | 57.61^# % | – | – | – | – |
| COc1cc(/C(=C\c2cc(O)c(OC)c(F)c2)C(=O)O)cc(OC)c1OC [Compound 8, (E)-3-(5-fluoro-3-hydroxy-4-methoxyphenyl)-2-(3,4,5-trimethoxyphenyl)acrylic acid] | – | 0.0735 ± 0.0127% | 6.72 ± 0.85 | 44.87^## % | 6.543 ± 0.7256% | – | 5.21 ± 0.47 | 49.47^## % | – | – | – | – |
| COc1ccc(/C=C(/C(=O)O)c2cc(OC)c(OC)c(OC)c2)cc1F [Compound 4, (E)-3-(3-fluoro-4-methoxyphenyl)-2-(3,4,5-trimethoxyphenyl)acrylic acid] | 6.872 ± 0.7633% | 0.0787 ± 0.0122% | 3.73 ± 0.60 | – | – | – | 4.51 ± 0.67 | 56.26^## % | – | 69.40% | best inhibitory effect on prostate cancer | – |
| COc1ccc(/C=C(/C(=O)O)c2cc(OC)c(OC)c(OC)c2)cc1O [Compound 6, (E)-3-(3-hydroxy-4-methoxyphenyl)-2-(3,4,5-trimethoxyphenyl)acrylic acid] | – | 0.0814 ± 0.0118% | 4.27 ± 0.92 | 64.97^# % | 7.249 ± 0.6689% | – | 3.58 ± 0.49 | 65.28% | – | – | – | best inhibitory effect on ovarian cancer |
| COc1cc(/C=C(/C(=O)[O-])c2cc(OC)c(OC)c(OC)c2)cc(OC)c1F.[K+] [Compound 10] | 5.847 ± 0.6349% | 0.0623 ± 0.0114% | 4.55 ± 0.81 | 62.67^# % | – | – | 4.26 ± 0.73 | 58.68^# % | – | – | – | – |
